Assay results as given in the supplement of paper PMC10307832.

Assays:
Assay in all cases: relative viability (nuclei count vs DMSO), 5 days (fraction); higher = more cells survive
BMX-IN-1 + Olaparib = compound: C=CC(=O)Nc1cc(-n2c(=O)ccc3cnc4ccc(-c5ccc(NS(C)(=O)=O)cc5)cc4c32)ccc1C [BMX-IN-1] + O=C(c1cc(Cc2n[nH]c(=O)c3ccccc23)ccc1F)N1CCN(C(=O)C2CC2)CC1 [Olaparib] (partner 8 µM)
Outline: (§1)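 For relative viability, nuclei counts in treated wells were divided by those in vehicle wells. Lung cancer cell lines had been pin-tool dosed in 1536-well plates the day after seeding and cultured for 5 days, then fixed and stained in one step (final 0.05% Triton X-100, 1% formaldehyde, 1 ug/ml Hoechst) and imaged at 4×. Doses were one drug alone or a fixed anchor-drug dose plus five library-drug doses (not always all listed) in √10 steps, and values are duplicate-plate medians.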

Ibrutinib + Lapatinib = compound: C=CC(=O)N1CCC[C@@H](n2nc(-c3ccc(Oc4ccccc4)cc3)c3c(N)ncnc32)C1 [Ibrutinib] + CS(=O)(=O)CCNCc1ccc(-c2ccc3ncnc(Nc4ccc(OCc5cccc(F)c5)c(Cl)c4)c3c2)o1 [Lapatinib] (partner 2 µM)
Outline: as §1

PAC-1 + Olaparib = compound: C=CCc1cccc(/C=N/NC(=O)CN2CCN(Cc3ccccc3)CC2)c1O [PAC-1] + O=C(c1cc(Cc2n[nH]c(=O)c3ccccc23)ccc1F)N1CCN(C(=O)C2CC2)CC1 [Olaparib] (partner 8 µM)
Outline: as §1

PAC-1 + Pictilisib = compound: C=CCc1cccc(/C=N/NC(=O)CN2CCN(Cc3ccccc3)CC2)c1O [PAC-1] + CS(=O)(=O)N1CCN(Cc2cc3nc(-c4cccc5[nH]ncc45)nc(N4CCOCC4)c3s2)CC1 [Pictilisib] (partner 1 µM)
Outline: as §1

Row | Cell Line | relative viability (BMX-IN-1 + Olaparib; first compound 0.02 µM) | relative viability (BMX-IN-1 + Olaparib; first compound 0.2 µM) | relative viability (BMX-IN-1 + Olaparib; first compound 0.6325 µM) | relative viability (BMX-IN-1 + Olaparib; first compound 2 µM) | relative viability (Ibrutinib + Lapatinib; first compound 0.005 µM) | relative viability (Ibrutinib + Lapatinib; first compound 0.01581 µM) | relative viability (Ibrutinib + Lapatinib; first compound 0.05 µM) | relative viability (Ibrutinib + Lapatinib; first compound 0.1581 µM) | relative viability (Ibrutinib + Lapatinib; first compound 0.5 µM) | relative viability (PAC-1 + Olaparib; first compound 0.02 µM) | relative viability (PAC-1 + Olaparib; first compound 0.06325 µM) | relative viability (PAC-1 + Olaparib; first compound 0.2 µM) | relative viability (PAC-1 + Olaparib; first compound 2 µM) | relative viability (PAC-1 + Pictilisib; first compound 0.02 µM) | relative viability (PAC-1 + Pictilisib; first compound 0.06325 µM) | relative viability (PAC-1 + Pictilisib; first compound 0.2 µM) | relative viability (PAC-1 + Pictilisib; first compound 2 µM)
1 | 201T | 0.84 | 0.904 | 0.844 | 0.83 | 1.04 | 0.983 | 1.08 | 0.968 | 1.02 | 0.817 | 0.859 | 0.857 | 0.818 | 0.561 | 0.702 | 0.75 | 0.672
2 | A549 | 0.286 | 0.392 | 0.249 | 0.306 | 0.931 | 0.916 | 1.05 | 1.08 | 1.02 | 0.344 | 0.353 | 0.285 | 0.477 | 0.483 | 0.511 | 0.509 | 0.487
3 | A-427 | 0.709 | 0.766 | 0.979 | 0.783 | 1.01 | 1.01 | 1.06 | 0.982 | 1.01 | 0.786 | 0.776 | 0.666 | 0.711 | 0.689 | 0.748 | 0.724 | 0.831
4 | ABC-1 | 0.749 | 1.02 | 0.815 | 0.978 | 1.14 | 1.19 | 1.29 | 1.19 | 1.26 | 0.781 | 0.668 | 0.848 | 0.741 | 0.624 | 0.665 | 0.545 | 0.74
5 | BEN | 1.26 | 1.02 | 1.05 | 1.15 | – | 0.791 | 0.519 | 0.526 | 0.551 | 1.14 | 1.05 | 0.885 | 0.872 | 0.557 | 0.534 | 0.536 | 0.51
6 | CAL-12T | 0.822 | 0.71 | 0.695 | 0.759 | 0.615 | 0.67 | 0.711 | 0.647 | 0.683 | 0.719 | 0.701 | 0.72 | 0.695 | 0.202 | 0.44 | 0.482 | 0.568
7 | COR-L23 | 0.286 | 0.373 | 0.439 | 0.327 | 1.24 | 0.948 | – | 0.964 | 0.982 | 0.308 | 0.334 | – | 0.379 | 0.853 | 0.848 | 0.644 | 0.855
8 | COR-L 105 | 0.735 | 0.689 | 0.791 | 0.641 | 0.36 | 0.402 | 0.368 | 0.314 | 0.337 | 0.753 | 0.723 | 0.631 | 0.789 | 0.397 | 0.397 | 0.167 | 0.411
9 | Calu-6 | 0.533 | 0.656 | 0.607 | 0.565 | 1.07 | 1.04 | 0.98 | 1.13 | – | 0.546 | 0.585 | – | 0.61 | 0.857 | 0.82 | 0.875 | 0.833
10 | ChaGo-K-1 | 0.435 | 0.443 | 0.416 | 0.417 | – | – | – | – | – | 0.419 | 0.412 | 0.416 | 0.404 | 0.817 | 0.818 | 0.925 | 0.627
11 | EBC-1 | 0.734 | 0.689 | 0.779 | 0.762 | 0.199 | 0.197 | 0.219 | 0.186 | 0.238 | 0.551 | 0.713 | 0.713 | 0.649 | 0.371 | 0.345 | 0.379 | 0.335
12 | EKVX | 0.99 | 0.993 | 0.971 | 0.828 | 0.178 | 0.215 | 0.216 | 0.191 | 0.179 | 0.987 | 0.847 | 0.751 | 0.764 | 0.453 | 0.415 | 0.374 | 0.488
13 | EMC-BAC-2 | 0.514 | 0.49 | 0.512 | 0.494 | 0.827 | 0.864 | 0.858 | 0.909 | 0.899 | 0.523 | 0.481 | 0.488 | 0.504 | 0.549 | 0.536 | 0.566 | 0.555
14 | EPLC-272H | 0.823 | 0.834 | 0.509 | 0.677 | – | 1.05 | 0.877 | 0.68 | 0.704 | 0.763 | 0.817 | 0.606 | 0.567 | – | 0.349 | 0.32 | 0.268
15 | H3255 | 0.584 | 0.588 | 0.548 | 0.628 | 0.26 | 0.28 | 0.248 | 0.182 | 0.218 | 0.64 | 0.579 | 0.536 | 0.515 | 0.454 | 0.455 | 0.448 | 0.471
16 | HARA | 1.01 | 0.859 | 0.936 | 0.734 | 0.836 | 0.638 | 0.727 | 0.777 | 0.796 | 0.769 | 0.65 | 0.813 | 1.16 | 0.414 | 0.376 | 0.323 | 0.413
17 | HCC-15 | 0.645 | 0.827 | 0.706 | 0.787 | 1.01 | 0.819 | 0.877 | 0.835 | 0.865 | 0.644 | 0.775 | 0.69 | 0.771 | 0.683 | 0.731 | 0.743 | 0.783
18 | HCC-44 | 1.02 | 0.994 | 1.03 | 1.07 | 1.09 | 0.948 | 1.02 | 1.08 | 1.02 | 1.05 | 0.906 | 0.963 | 0.986 | 0.455 | 0.697 | 0.666 | 0.648
19 | HCC-78 | 1.09 | 0.744 | 0.804 | 0.913 | 1.27 | 0.812 | 0.57 | 0.398 | 0.399 | 0.8 | 0.893 | 0.874 | 0.827 | 0.179 | 0.196 | 0.236 | 0.195
